In the assay the test system is A2780 cells. Kind of assay: DNA platination in A2780 cells. Conditions: A2780, 24 h CT, 10 μM. Type of assay: cell-based, human. How it is done:
Cells were seeded in 175 cm^2 flasks and treated for 24 h with the complexes under investigation (10 μM) as described previously. From this sample, about 5 × 10^6 cells were taken out for the cellular accumulation analysis (see the previous section), whereas about 20 × 10^6 cells were taken out for the DNA platination analysis.
For DNA platination analysis, cells were transferred to a plastic tube and centrifuged at 1100 rpm for 5 min at room temperature. […]
After washing, DNA was eluted in 300 μL of elution buffer. […] Absorbance at 260 nm (A260, relative to nucleic acids) and 280 nm (A280, relative to proteins) was recorded from triplicate wells.
For each well, A260 and A280 were corrected by subtracting the background, and then the purity of the samples was verified by means of the A260 to A280 ratio. After subtracting the mean A260 from the blank wells, the DNA concentration was calculated from the corrected A260 using a calibration curve obtained with the calf thymus DNA. Under these conditions, an absorbance of 1 unit at 260 nm corresponds to 100 μg of DNA per mL. The remaining amount of DNA elution buffer was transferred to a borosilicate glass tube, and its precise volume was determined by weight to calculate the total amount of DNA and then stored at −20°C until mineralization. […]

For `CC(=O)[O][Pt]([OH])([Cl])[Cl].N.N` [Complex 2, (OC-6-44)-acetatodiamminedichloridohydroxidoplatinum(IV)], the DNA platination entry is “the highest among Complexes 1–3 and was similar to that of cisplatin”.

Values taken from paper PMC9822769, “The Strange Case: The Unsymmetric Cisplatin-Based Pt(IV) Prodrug [Pt(CH3COO)Cl2(NH3)2(OH)] Exhibits Higher Cytotoxic Activity with respect to Its Symmetric Congeners due to Carrier-Mediated Cellular Uptake” (Bioinorganic Chemistry and Applications, 2022).
